Values of other authors, collected in patent US20220202699A1 (priority 2020, published 2022).

Columns and labels:
[1] = in vivo
influenza A virus [2] = system: influenza A virus
[3] = system: Toll-like receptors (TLR); details: suppress innate immunity
[4] = system: inflammatory cell infiltrates (neutrophils and lymphocytes); details: in vivo
influenza A virus [5] = system: influenza A virus; remark: listed apart in the source

CC(C)(C)NCC(O)c1ccc(O)c(CO)c1 (stereo not drawn) [Albuterol]
bronchodilator effect [1]: effective bronchodilator

CCCCC/C=C\C/C=C\C/C=C\C/C=C\CCCC(=O)OC(COC(=O)CCCCCCCCCCCCCCCCC)COP(=O)(O)OC1C(O)C(O)C(O)C(O)C1O (stereo not drawn) [PI, phosphatidyl inositol]
binding affinity for the influenza A virus (influenza A virus [2]): high binding affinity | functioning as deactivators of Toll-like receptors (TLR) [3]: deactivators of Toll-like receptors | virus-induced proinflammatory cytokines [4]: reduced | binding of the influenza A virus to the surrogate host cells (influenza A virus [5]): prevent the binding | membrane convergence of influenza A and host cell (influenza A virus [5]; influenza A, model MDCK cells): inhibited
